# Key:
# Assay in all cases: In vitro antibacterial evaluation: minimum inhibitory concentration (MIC), broth dilution method
# Assay type in all cases: cell-based
# [1] = system: Enterococcus sp.; conditions: broth dilution, 18 hours at 35° C.
# Procedure, shortened: (§1)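 An MIC is reported for each organism as the least concentration giving inhibition, using broth dilution over 64-0.06 μg/mL with a 5×10^5 CFU/mL inoculum.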
# [2] = system: Staphylococcus sp.; conditions: broth dilution, 18 hours at 35° C.; for MIC Staphylococcus aureus-SMITH (GC 4543): strain SMITH GC 4543
# Procedure, shortened: as §1
# [3] = system: Streptococcus sp.; conditions: broth dilution, 18 hours at 35° C.
# Procedure, shortened: as §1
# [4] = system: Escherichia coli; conditions: broth dilution, 18 hours at 35° C.
# [5] = Enterococcus faecalis (ATCC 29212)
# [6] = Enterococcus faecalis (GC 2242)
# [7] = Enterococcus faecalis (GC 2691)
# [8] = Enterococcus faecalis (GC 4553)
# [9] = Enterococcus faecalis (GC 6189)
# [10] = Streptococcus agalactiae (GC 4564)
# [11] = Streptococcus pneumoniae (ATCC 6301)
# [12] = Streptococcus pneumoniae (GC 1894)
# [13] = Streptococcus pneumoniae (GC 4565)
# [14] = Streptococcus pyogenes (GC 4563)
structure (smiles),measurement,setting,value
"CC(c1ccccc1)C1NC(=O)CNC(=O)C(CO)NC(=O)C(C(O)C2CNC(=N)N2C2OC(CO)C(O)C(O)C2O)NC(=O)C(C(O)C2CNC(=N)N2)NC(=O)C(Cc2ccc3oc(-c4ccc(OCc5ccccc5)cc4)nc3c2)NC1=O (stereo not drawn) [Example 31, Cyclo[3-[2-[4-(phenylmethoxy)phenyl]-1,3-benzoxazol-5-yl]alanyl-3-(2-iminoimidazolidin-4-yl)seryl-3-(3-hexopyranosyl-2-iminoimidazolidin-4-yl)serylserylglycyl-β-methyl-phenylalanyl]]",MIC Enterococcus avium (GC 4558),[1]; Enterococcus avium (GC 4558),8 µg/mL
same,MIC Enterococcus faecalis (ATCC 29212),[1]; [5],64 µg/mL
same,MIC Enterococcus faecalis (GC 2242),[1]; [6],64 µg/mL
same,MIC Enterococcus faecalis (GC 2691),[1]; [7],64 µg/mL
same,MIC Enterococcus faecalis (GC 4553),[1]; [8],16 µg/mL
same,MIC Enterococcus faecalis (GC 6189),[1]; [9],64 µg/mL
same,MIC Enterococcus faecium (GC 2243),[1]; Enterococcus faecium (GC 2243),32 µg/mL
same,MIC Enterococcus faecium (GC 4556),[1]; Enterococcus faecium (GC 4556),4 µg/mL
same,MIC Enterococcus faecium (GC 4557),[1]; Enterococcus faecium (GC 4557),4 µg/mL
same,MIC Enterococcus avium (GC 4558),[1],8 µg/mL
same,MIC Enterococcus faecalis (ATCC 29212),[1],64 µg/mL
same,MIC Enterococcus faecalis (GC 2242),[1],64 µg/mL
same,MIC Enterococcus faecalis (GC 2691),[1],64 µg/mL
same,MIC Enterococcus faecalis (GC 4553),[1],16 µg/mL
same,MIC Enterococcus faecalis (GC 6189),[1],64 µg/mL
same,MIC Enterococcus faecium (GC 2243),[1],32 µg/mL
same,MIC Enterococcus faecium (GC 4556),[1],4 µg/mL
same,MIC Enterococcus faecium (GC 4557),[1],4 µg/mL
same,MIC Coagulase Negative Staphylococcus (GC 4547),[2],8 µg/mL
same,MIC Coagulase Negative Staphylococcus (GC 4548),[2],8 µg/mL
same,MIC Coagulase Negative Staphylococcus (GC 4549),[2],16 µg/mL
same,MIC Coagulase Negative Staphylococcus (GC 4551),[2],16 µg/mL
same,MIC Coagulase Negative Staphylococcus (GC 6257),[2],4 µg/mL
same,MIC Staphylococcus aureus SMITH (GC 4543),[2],16 µg/mL
same,MIC Staphylococcus haemolyticus (GC 4546),[2],8 µg/mL
same,MIC Staphylococcus aureus-SMITH (GC 4543),[2],16 µg/mL
same,MIC Streptococcus agalactiae (GC 4564),[3]; [10],32 µg/mL
same,MIC Streptococcus pneumoniae (ATCC 6301),[3]; [11],16 µg/mL
same,MIC Streptococcus pneumoniae (GC 1894),[3]; [12],32 µg/mL
same,MIC Streptococcus pneumoniae (GC 4565),[3]; [13],64 µg/mL
same,MIC Streptococcus pyogenes (GC 4563),[3]; [14],8 µg/mL
same,MIC Streptococcus agalactiae (GC 4564),[3],32 µg/mL
same,MIC Streptococcus pneumoniae (ATCC 6301),[3],16 µg/mL
same,MIC Streptococcus pneumoniae (GC 1894),[3],32 µg/mL
same,MIC Streptococcus pneumoniae (GC 4565),[3],64 µg/mL
same,MIC Streptococcus pyogenes (GC 4563),[3],8 µg/mL
same,MIC Escherichia coli (GC 4560),[4],32 µg/mL
"CC(c1ccccc1)C1NC(=O)CNC(=O)C(CO)NC(=O)C(C(O)C2CNC(=N)N2C2OC(CO)C(O)C(O)C2O)NC(=O)C(C(O)C2CNC(=N)N2)NC(=O)C(Cc2ccc3oc(-c4ccc(C(C)(C)C)cc4)nc3c2)NC1=O (stereo not drawn) [Example 32, Cyclo[3-[2-(4-tert-butylphenyl)-1,3-benzoxazol-5-yl]alanyl-3-(2-iminoimidazolidin-4-yl)seryl-3-(3-hexopyranosyl-2-iminoimidazolidin-4-yl)serylserylglycyl-β-methylphenylalanyl]]",MIC Enterococcus avium (GC 4558),[1]; Enterococcus avium (GC 4558),4 µg/mL
same,MIC Enterococcus faecalis (ATCC 29212),[1]; [5],8 µg/mL
same,MIC Enterococcus faecalis (GC 2242),[1]; [6],4 µg/mL
same,MIC Enterococcus faecalis (GC 2691),[1]; [7],8 µg/mL
same,MIC Enterococcus faecalis (GC 3059),[1]; Enterococcus faecalis (GC 3059),8 µg/mL
same,MIC Enterococcus faecalis (GC 4552),[1]; Enterococcus faecalis (GC 4552),8 µg/mL
same,MIC Enterococcus faecalis (GC 4553),[1]; [8],8 µg/mL
same,MIC Enterococcus faecalis (GC 4554),[1]; Enterococcus faecalis (GC 4554),4 µg/mL
same,MIC Enterococcus faecalis (GC 6189),[1]; [9],4 µg/mL
same,MIC Enterococcus faecium (GC 2243),[1]; Enterococcus faecium (GC 2243),4 µg/mL
same,MIC Enterococcus faecium (GC 4556),[1]; Enterococcus faecium (GC 4556),8 µg/mL
same,MIC Enterococcus faecium (GC 4557),[1]; Enterococcus faecium (GC 4557),2 µg/mL
same,MIC Enterococcus avium (GC 4558),[1],4 µg/mL
same,MIC Enterococcus faecalis (ATCC 29212),[1],8 µg/mL
same,MIC Enterococcus faecalis (GC 2242),[1],4 µg/mL
same,MIC Enterococcus faecalis (GC 2691),[1],8 µg/mL
same,MIC Enterococcus faecalis (GC 3059),[1],8 µg/mL
same,MIC Enterococcus faecalis (GC 4552),[1],8 µg/mL
same,MIC Enterococcus faecalis (GC 4553),[1],8 µg/mL
same,MIC Enterococcus faecalis (GC 4554),[1],4 µg/mL
same,MIC Enterococcus faecalis (GC 6189),[1],4 µg/mL
same,MIC Enterococcus faecium (GC 2243),[1],4 µg/mL
same,MIC Enterococcus faecium (GC 4556),[1],8 µg/mL
same,MIC Enterococcus faecium (GC 4557),[1],2 µg/mL
same,MIC Coagulase Negative Staphylococcus (GC 4547),[2],2 µg/mL
same,MIC Coagulase Negative Staphylococcus (GC 4548),[2],1 µg/mL
same,MIC Coagulase Negative Staphylococcus (GC 4549),[2],2 µg/mL
same,MIC Coagulase Negative Staphylococcus (GC 4551),[2],4 µg/mL
same,MIC Coagulase Negative Staphylococcus (GC 6257),[2],2 µg/mL
same,MIC Staphylococcus aureus SMITH (GC 4543),[2],2 µg/mL
same,MIC Staphylococcus haemolyticus (GC 4546),[2],2 µg/mL
same,MIC Staphylococcus aureus-SMITH (GC 4543),[2],2 µg/mL
same,MIC Streptococcus agalactiae (GC 4564),[3]; [10],16 µg/mL
same,MIC Streptococcus pneumoniae (ATCC 6301),[3]; [11],16 µg/mL
same,MIC Streptococcus pneumoniae (GC 1894),[3]; [12],16 µg/mL
same,MIC Streptococcus pneumoniae (GC 4565),[3]; [13],16 µg/mL
same,MIC Streptococcus pyogenes (GC 4563),[3]; [14],8 µg/mL
same,MIC Streptococcus agalactiae (GC 4564),[3],16 µg/mL
same,MIC Streptococcus pneumoniae (ATCC 6301),[3],16 µg/mL
same,MIC Streptococcus pneumoniae (GC 1894),[3],16 µg/mL
same,MIC Streptococcus pneumoniae (GC 4565),[3],16 µg/mL
same,MIC Streptococcus pyogenes (GC 4563),[3],8 µg/mL
same,MIC Escherichia coli (ATCC 25922),[4],16 µg/mL
same,MIC Escherichia coli (GC 4559),[4],16 µg/mL
same,MIC Escherichia coli (GC 4560),[4],4 µg/mL

# — patent publication US8247211B2, “Glycopeptide antibiotics” (American Cyanamid Company, priority 2001, dated 2012)
